Here are results for 125 compounds from a melting point compilation (Tetko et al.).

Take `Cc1c(N)cccc1COC1CCCCC1`: the melting point (in general, the temperature, or range, at which the solid turns liquid) was 54 to 56 °C.

The compound `Cc1ccc(S(=O)(=O)N2CCCCC2)cc1S(=O)(=O)Cl` displayed a melting point of 154 to 156 °C. `CC(C)CC1NC(C(=O)O)CS1` (stereo not given): the melting point was 159 to 161 °C. For `O=S1(=O)CCC(CCBr)C1` (stereo not given), the melting point lay in the range of 56 to 58 °C. Compound `Nc1ccc2c(c1)NC(=O)CC2` registered a melting point of 210 to 212 °C. With `O=c1ccc(Cl)n[nH]1`, the melting point lay within 138 to 140 °C. For the compound `Nc1c(-c2ccccc2)nc2sccn12`, the melting point is 148 to 152 °C.

In turn, `CN(C)S(=O)(=O)c1cccc(NC(=S)NN)c1` displayed a melting point of 155 to 157 °C. In turn, `CCc1ccc(S(=O)(=O)O)cc1N` returned a melting point of 268 to 270 °C. In the case of `CN1CC(C(=O)O)Cc2ccccc21` (stereo not given), the melting point fell in the range of 209 to 211 °C. In turn, `Cn1nc(Br)c2c(N)ncnc21` returned a melting point of 228 to 230 °C. The compound `C=CCNC(=O)c1cccnc1Cl` had a melting point of 75 to 77 °C. `NC(=O)Cn1c(S)nnc1-c1cccs1`: the melting point was in the range of 319 to 321 °C. The figure for `CS(=O)(=O)CCOc1cccc(N)c1` is 79 to 81 °C; for `CCN(CC)c1ccc(S(N)(=O)=O)cc1NC(=O)CCl` it is 135 to 137 °C. Regarding `O=C(O)CCC1NC(=O)N(c2ccc(F)cc2F)C1=O` (stereo not given), the melting point is 183 to 185 °C. In the case of `COc1c(Br)cc(Cl)cc1S(=O)(=O)Cl`, the melting point is 68 to 70 °C.

On to `Oc1cn(-c2ccccc2)nn1`, for which the melting point fell in the range of 160 to 162 °C. As for `CCOc1cc(C(=O)O)ccn1`, the melting point lay in the range of 171 to 173 °C.

`c1ccc(-c2cn[nH]c2)cc1`: the melting point was in the range of 229 to 231 °C. `O=C(Nc1ccccc1)c1ccc(O)cc1` came in with a melting point of 195 to 197 °C. `CC(CC(=O)O)c1cccc(C(F)(F)F)c1` (stereo not given): the melting point fell in the range of 83 to 85 °C.

`O=C(CCCl)Nc1ccc(Cl)cc1` returned a melting point of 124 to 126 °C. As to `N#Cc1c(N)nc2n1CCS2`, the melting point was in the range of 216 to 218 °C. As to `CCOC(=O)c1c(N)sc2ccccc12`, the melting point was 105 to 107 °C. For the compound `O=S(=O)(Cl)c1cn2c(n1)CCCC2`, the melting point lay within 74 to 76 °C.

Take `CN1C(=O)CCC(C(N)=O)C1c1cnn(C)c1` (stereo not given): the melting point was 185 to 187 °C. `CCOC(=O)Cc1ccc(C(C)=O)cc1`: the melting point is 55 to 57 °C.

`Cc1cc(S(=O)(=O)Cl)cc(C)c1F`: the melting point was 88 to 90 °C. The result for `Cc1ccc(CCC(=O)O)o1` reads 58 to 60 °C; that for `O=[N+]([O-])c1ccc(-c2nnc(CCl)o2)cc1`, 128 to 130 °C.

Regarding `NC(=NO)c1ccccc1CN1CCCCC1`, the melting point was 114 to 116 °C. The figure for `CSc1nc(CCl)cc(=O)[nH]1` is 176 to 178 °C; for `COc1cc(C(=O)O)ccc1NN` it is 149 to 151 °C. Compound `Cc1ccc(S(=O)(=O)Nc2ccc(O)cc2)s1` returned a melting point of 106 to 108 °C. `O=C(O)COc1ccc(F)c(Cl)c1` yielded a melting point of 106 to 108 °C. `O=C(O)CCc1nnc(-c2ccc(Cl)cc2)o1` yielded a melting point of 159 to 161 °C. For `Cc1ccc(C(=O)NC(CC(=O)O)c2ccccc2)cc1` (stereo not given), the melting point lay within 190 to 192 °C. Take `COc1ccc(N)cc1OCCO`: the melting point lay within 99 to 101 °C. `Cc1ccc(N2N=C(Br)CC2C(=O)O)cc1` (stereo not given) showed a melting point of 79 to 81 °C. The figure for `O=C(O)C1CCN(S(=O)(=O)c2cccs2)CC1` is 133 to 135 °C; for `Cc1sc2nc(CN3CCCC3)nc(Cl)c2c1C` it is 68 to 72 °C. The figure for `CCOC(=O)C=Cc1ccc2c(c1)OCO2` is 66 to 68 °C. `Nc1cc2ccccc2c(=O)[nH]1` registered a melting point of 319 to 321 °C. In turn, `CCCS(=O)(=O)NC(C)C(=O)O` (stereo not given) came in with a melting point of 64 to 66 °C. `CN(C)C(=O)c1cn[nH]c1N` had a melting point of 167 to 169 °C. Consider `Cc1ccc(-c2nnc(Cl)c3ccccc23)cc1`, for which the melting point lay within 145 to 147 °C. Compound `CC(C)(C)OC(=O)N1C(=O)NC(C)(C)C1=O` displayed a melting point of 152 to 154 °C. Take `CCN(CC)C(=O)c1ccc(N)cc1Cl`: the melting point lay in the range of 154 to 156 °C. Compound `CNC(=O)c1cc(Oc2cc(N)ccc2C)ccn1` registered a melting point of 141 to 143 °C.

Regarding `NNC(=O)Cc1cc[nH]n1`, the melting point is 180 to 182 °C. As for `CC(Cl)C(=O)Nc1ccc(I)cc1` (stereo not given), the melting point lay in the range of 159 to 161 °C. The result for `CSCc1c(C(=O)O)oc2ccccc12` reads 100 to 102 °C; that for `NNc1ccc(C(F)(F)F)cn1`, 61 to 63 °C; that for `C#CCOc1c(Cl)cc(C=O)cc1OC`, 106 to 108 °C. Regarding `COC(=O)c1c[nH]c(C)n1`, the melting point fell in the range of 136 to 138 °C. Regarding `Cn1cc(C(=O)NN)c2ccccc21`, the melting point is 138 to 140 °C. The result for `COc1cc(C(=O)O)cc(NS(C)(=O)=O)c1OC` reads 214 to 216 °C; that for `NC(=O)c1ccc(Cl)nn1`, 239 to 241 °C; that for `Cc1sc(N)c(C#N)c1C`, 134 to 136 °C. Compound `O/N=C/c1c(Cl)ncn1-c1ccccc1` came in with a melting point of 179 to 181 °C.

Consider `CC(=O)c1csc(C(=O)O)c1`, for which the melting point was 149 to 151 °C. On to `CNCc1ccc(O)cc1`, for which the melting point was in the range of 103 to 105 °C. For the compound `CC1=CC(=O)N(C2CCCCC2)C1=O`, the melting point fell in the range of 99 to 101 °C. Compound `CCNS(=O)(=O)c1cc(F)ccc1F` came in with a melting point of 68 to 70 °C. `COc1cc(C)c(C(C)=O)cc1OC`: the melting point fell in the range of 73 to 75 °C.

Compound `O=C(O)c1cc2c(s1)CCOC2` showed a melting point of 148 to 150 °C.

Compound `CC(C)COc1ccc(CC(=O)O)cc1` came in with a melting point of 86 to 88 °C. For the compound `O=c1cc(CO)nc2sccn12`, the melting point fell in the range of 193 to 195 °C. The figure for `CCCc1c(C(=O)O)[nH]c(C)c1C(=O)OC` is 215 to 217 °C; for `N#CCc1cccc(C(N)=O)c1` it is 157 to 159 °C; for `O=C(O)c1oc2ccccc2c1CSC1CCCCC1` it is 158 to 160 °C. The figure for `Cc1ccc(S(=O)(=O)N(C)C(C)C)cc1N` is 117 to 119 °C; for `Cc1occc1C(=O)Nc1cc(N)ccc1F` it is 130 to 132 °C. `O=C(c1ccc(Br)cc1)C(F)(F)F` came in with a melting point of 29 to 31 °C. The result for `CC(C)c1nccn1Cc1cccc(N)c1` reads 88 to 90 °C; that for `N#Cc1cc(C(F)(F)F)ccc1O`, 152 to 154 °C; that for `Cc1ccc(NC(=O)CCl)c(Cl)c1`, 98 to 100 °C. The compound `Nc1ccc(-c2nc3cc(Br)ccc3[nH]2)cc1` had a melting point of 219 to 221 °C.

Turning to `Cc1ccc(C(=O)N2CCSCC2)cc1O`, the melting point lay in the range of 159 to 161 °C. `Cc1ccc(-c2noc(CCC(=O)O)n2)cc1` had a melting point of 143 to 145 °C. `O=C1CC(C(F)F)=NN1` yielded a melting point of 149 to 151 °C. For the compound `CC(C)(C)n1ncc(C(=O)O)c1C(F)(F)F`, the melting point fell in the range of 110 to 112 °C. With `O=C(O)C12CC3CC(C1)CC(C(F)(F)F)(C3)C2`, the melting point is 138 to 140 °C. Regarding `O=Cc1cc(C(=O)O)cs1`, the melting point lay within 173 to 175 °C.

`O=C(O)C1CCCN(C(=O)CCOc2ccccc2)C1` (stereo not given) registered a melting point of 171 to 173 °C. Turning to `O=S(=O)(Cl)c1ccc2c(c1)CCC2`, the melting point was 33 to 42 °C. For the compound `CCC(C)NC(=O)c1cccc(CN)c1` (stereo not given), the melting point lay within 95 to 97 °C.

As to `CC(=O)Nc1ccc(Br)c(C(=O)O)n1`, the melting point fell in the range of 189 to 191 °C. With `O=C(CCl)Nc1nnc(-c2ccco2)o1`, the melting point lay in the range of 194 to 196 °C. The result for `O=Cc1cc(Br)ccc1OCc1ccccn1` reads 138 to 140 °C; that for `Cc1nnc(-c2cccc([N+](=O)[O-])c2)o1`, 158 to 160 °C. In turn, `CC1(O)CCc2ccccc21` (stereo not given) gave a melting point of 56 to 58 °C.

As for `CC1(c2cccc(C(N)=O)c2)NC(=O)NC1=O` (stereo not given), the melting point was 225 to 227 °C. On to `CCOC(=O)c1cc2cc(N)ccc2s1`, for which the melting point is 89 to 91 °C. Compound `c1ccc(-c2nc[nH]n2)cc1` yielded a melting point of 117 to 119 °C. The compound `Cc1ccc2c(Cl)cc(Cl)c(OCC(=O)O)c2n1` had a melting point of 209 to 211 °C. Compound `Cc1cnnc(N)n1` yielded a melting point of 174 to 176 °C.

With `COC(=O)c1ccc(C(Br)Br)cc1`, the melting point lay in the range of 42 to 45 °C. As to `O=S(=O)(c1ccc(S)nc1)N1CCCC1`, the melting point lay in the range of 179 to 181 °C.

For `CC(=O)c1c[nH]c(C(=O)C(Cl)(Cl)Cl)c1`, the melting point fell in the range of 190 to 192 °C. The compound `NC(=O)CCc1ccc(N)cc1` showed a melting point of 131 to 133 °C.

As for `CC(=O)c1ccc(OCC#N)cc1`, the melting point lay in the range of 82 to 84 °C. Regarding `O=C(O)c1cc(I)cc(C(F)(F)F)c1`, the melting point is 182 to 184 °C.

In turn, `Cc1cc(N)n(-c2ccncc2)n1` gave a melting point of 96 to 98 °C.

`N#CCCCS(=O)(=O)c1ccc(C(=O)O)cc1` returned a melting point of 195 to 197 °C. Turning to `Cc1cc(C(C)(C)C)cc(C)c1CCNC(=O)CCl`, the melting point fell in the range of 114 to 116 °C.

Regarding `Cc1ocnc1C(=O)O`, the melting point was in the range of 127 to 129 °C. Compound `Cn1c(=O)oc2cc(N)ccc21` yielded a melting point of 150 to 152 °C. In turn, `O=C(O)c1ccc(-n2cnnn2)cc1` had a melting point of 220 to 230 °C. On to `O=C(O)c1cccc(OCc2cccs2)c1`, for which the melting point lay in the range of 147 to 149 °C. `O=C(O)CN1C(=O)Cc2ccccc2C1=O` came in with a melting point of 246 to 248 °C. Compound `CC(C)CNC(=O)c1cc(Cl)ccc1N` returned a melting point of 137 to 139 °C. The compound `O=C(O)c1cc(-c2ccc(C(F)(F)F)cc2)no1` gave a melting point of 329 to 331 °C. The result for `Cc1cc(Oc2ncccc2C#N)ccc1N` reads 158 to 160 °C; that for `CC(C)n1nnnc1S`, 89 to 91 °C; that for `COC(=O)c1cc(S(=O)(=O)Cl)cn1C`, 78 to 80 °C.

For the compound `Brc1ccn2nccc2n1`, the melting point fell in the range of 131 to 133 °C. The figure for `CC(Cl)C(=O)Nc1ccccc1Oc1ccccc1` (stereo not given) is 64 to 66 °C. For the compound `CCc1cccc2c(C(=O)O)c[nH]c12`, the melting point is 193 to 195 °C. Regarding `Cc1cc(C(=O)CCl)c(C)n1NC(=O)c1ccccc1`, the melting point lay in the range of 141 to 143 °C. The result for `CCOc1cc(C=O)cc(Br)c1OC(F)F` reads 94 to 96 °C; that for `COc1ccccc1OCCBr`, 39 to 41 °C.

Take `Cc1[nH]c(=O)c(C(=O)O)cc1-c1ccccc1`: the melting point was in the range of 258 to 260 °C.

Regarding `COCCn1cnnc1S`, the melting point is 79 to 81 °C.
